pEC50, pIC50: −log10 of the molar value.
How the values were obtained:
[1] = molecular target: T1, human acetyl-CoA carboxylase 2 (ACC2) (Homo sapiens, UniProt O00763); test: Acetyl-CoA carboxylase enzyme assay (malonyl-CoA formation by LC/MS/MS); assay type: biochemical; settings: recombinant human ACC2 (aa 144-2458); read-out: IC50 ACC2
T1 construct: The cDNA encoding amino acids 144 to 2458 of human acetyl-CoA carboxylase 2; made in house; host or cells: Sf9 insect cells (baculovirus, pFastBac1)
T1 sequence (O00763 144-2458): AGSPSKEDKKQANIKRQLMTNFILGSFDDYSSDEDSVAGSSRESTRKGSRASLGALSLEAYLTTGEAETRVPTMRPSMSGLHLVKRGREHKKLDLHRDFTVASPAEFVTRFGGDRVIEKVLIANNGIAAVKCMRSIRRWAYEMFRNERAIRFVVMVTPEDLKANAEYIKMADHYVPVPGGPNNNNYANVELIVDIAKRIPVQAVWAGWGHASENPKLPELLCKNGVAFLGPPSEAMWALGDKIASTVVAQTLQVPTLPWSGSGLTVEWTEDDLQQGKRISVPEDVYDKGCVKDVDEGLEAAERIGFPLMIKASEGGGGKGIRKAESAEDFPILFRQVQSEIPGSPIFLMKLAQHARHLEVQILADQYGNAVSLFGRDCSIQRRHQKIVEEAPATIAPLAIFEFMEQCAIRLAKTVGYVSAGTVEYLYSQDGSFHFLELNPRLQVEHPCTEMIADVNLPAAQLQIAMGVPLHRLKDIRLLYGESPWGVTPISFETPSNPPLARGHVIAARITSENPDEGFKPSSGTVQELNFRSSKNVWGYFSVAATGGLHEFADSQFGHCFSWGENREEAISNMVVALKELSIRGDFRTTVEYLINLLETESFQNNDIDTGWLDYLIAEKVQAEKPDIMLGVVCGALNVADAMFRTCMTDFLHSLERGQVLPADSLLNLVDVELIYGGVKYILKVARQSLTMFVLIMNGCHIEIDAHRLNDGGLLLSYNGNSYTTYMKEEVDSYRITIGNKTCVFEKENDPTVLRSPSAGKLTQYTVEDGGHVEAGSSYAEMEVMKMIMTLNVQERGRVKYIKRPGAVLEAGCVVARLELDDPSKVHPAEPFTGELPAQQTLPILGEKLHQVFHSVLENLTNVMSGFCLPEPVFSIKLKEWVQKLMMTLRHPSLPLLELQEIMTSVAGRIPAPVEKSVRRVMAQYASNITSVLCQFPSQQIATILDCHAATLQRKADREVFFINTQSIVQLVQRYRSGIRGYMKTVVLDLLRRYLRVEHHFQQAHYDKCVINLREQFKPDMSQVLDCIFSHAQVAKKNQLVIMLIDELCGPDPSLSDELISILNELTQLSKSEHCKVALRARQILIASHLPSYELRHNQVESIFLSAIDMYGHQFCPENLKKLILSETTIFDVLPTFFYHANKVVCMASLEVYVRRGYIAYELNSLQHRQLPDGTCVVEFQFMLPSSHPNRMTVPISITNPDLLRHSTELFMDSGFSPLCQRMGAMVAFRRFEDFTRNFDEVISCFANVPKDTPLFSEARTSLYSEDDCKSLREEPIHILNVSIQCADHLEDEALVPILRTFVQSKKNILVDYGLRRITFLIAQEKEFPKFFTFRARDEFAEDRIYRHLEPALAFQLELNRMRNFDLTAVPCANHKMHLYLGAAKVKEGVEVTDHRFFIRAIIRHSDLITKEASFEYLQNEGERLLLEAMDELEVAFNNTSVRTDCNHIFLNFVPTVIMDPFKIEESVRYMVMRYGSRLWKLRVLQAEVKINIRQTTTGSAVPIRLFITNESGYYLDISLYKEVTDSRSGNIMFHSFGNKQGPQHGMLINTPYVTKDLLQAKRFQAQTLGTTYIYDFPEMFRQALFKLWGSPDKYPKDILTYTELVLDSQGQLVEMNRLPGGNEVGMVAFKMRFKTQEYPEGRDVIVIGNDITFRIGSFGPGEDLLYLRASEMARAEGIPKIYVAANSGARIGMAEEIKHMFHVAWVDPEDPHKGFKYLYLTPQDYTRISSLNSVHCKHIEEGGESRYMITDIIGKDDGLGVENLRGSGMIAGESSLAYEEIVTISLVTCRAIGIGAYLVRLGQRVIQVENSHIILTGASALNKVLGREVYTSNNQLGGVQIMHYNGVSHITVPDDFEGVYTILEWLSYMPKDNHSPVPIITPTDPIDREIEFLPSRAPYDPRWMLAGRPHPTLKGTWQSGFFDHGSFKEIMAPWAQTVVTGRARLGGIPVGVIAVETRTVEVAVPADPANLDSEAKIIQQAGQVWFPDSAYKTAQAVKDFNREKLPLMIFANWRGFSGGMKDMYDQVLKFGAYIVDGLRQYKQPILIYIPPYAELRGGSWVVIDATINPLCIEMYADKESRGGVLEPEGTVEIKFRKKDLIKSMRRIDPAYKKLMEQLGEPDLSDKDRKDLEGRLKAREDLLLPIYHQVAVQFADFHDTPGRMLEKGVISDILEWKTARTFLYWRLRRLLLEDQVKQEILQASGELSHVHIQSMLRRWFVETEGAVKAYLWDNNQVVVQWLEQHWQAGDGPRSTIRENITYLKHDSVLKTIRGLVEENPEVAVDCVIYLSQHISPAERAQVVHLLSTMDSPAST
Method in brief: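 Malonyl-CoA formation was read by LC/MS/MS MRM against a [13C3]-malonyl-CoA internal standard, after acetic acid quench. The enzyme was baculovirus/Sf9-expressed human ACC2 residues 144–2458, given 15 minutes room-temperature compound preincubation in HEPES pH 7.5 buffer with MgCl2, citrate and DTT. Substrate solution held 50 μM acetyl-CoA, 120 μM ATP and 2 mM KHCO3.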

[2] = tested on: HCVcc genotype 2a (JFH-1 strain) virus; test: HCV assay: JFH-1 rLuc infection of Huh 7.5 cells, renilla luciferase readout; assay type: cell-based; settings: Hepatitis C virus, Huh7.5; JFH-1 rLuc virus, MOI=0.01, Huh 7.5 cells, 72 hours, luciferase activity reduced by 50%
Experimental: (§1) The effect of compounds on HCV infection was determined in vitro using cell cultured (HCVcc) genotype 2a (JFH-1 strain) virus. A renilla luciferase reporter gene was inserted in the viral genome, the expression of which was under the control of HCV 5′UTR (JFH-1^rLuc). Thus, the inhibition of HCV infection or replication can be indirectly measured by the reduction of luciferase activity in the cells. A specifically adapted hepatoma cell line, Huh 7.5, which allowed higher infectivity of HCV in vitro, was cultured in Dulbecco's modified Eagle's medium (DMEM) supplemented with 2 mM L-glutamine, 0.1 mM non-essential amino acids and 10% heat-inactivated fetal bovine serum. The cells were infected with JFH-1^rLuc virus at an MOI=0.01 and were treated at the same time with serially diluted compounds. After 72 hours, luciferase activities in compound-treated cells were measured using the Renilla Luciferase Assay System (Promega) and were compared to those in untreated control cells. Concentration-dependent inhibition curves were generated, from which EC50 values, the concentrations of compounds at which luciferase activities were reduced by 50% relative to untreated control, were calculated. In parallel, cytotoxicity of compounds was determine by measuring the viability of compound-treated cells using CellTiter 96® AQueous One Solution Cell Proliferation Assay (Promega). CC50 represented the concentration of the compound at which cell viability was reduced by 50% compared to untreated control.

in vitro = assay type: cell-based; settings: human
Experimental: as §1

Row | SMILES | pIC50 [1] | pEC50 [2] | CC50 at 72 h (in vitro) [nM]
1 | C[C@@H]1CN(C(=O)[C@H]2CC[C@H](NS(=O)(=O)c3ccc4c(Cl)c(-c5ccccc5)[nH]c4c3)CC2)C[C@H](C)O1 [Example 477, 3-chloro-N-((1R,4r)-4-((2S,6R)-2,6-dimethylmorpholine-4-carbonyl)cyclohexyl)-2-phenyl-1H-indole-6-sulfonamide] | > 8.00 | 7.40 | 12000
2 | Cn1c(-c2ccccc2)cc2ccc(S(=O)(=O)N[C@H]3CC[C@H](C(=O)N4CCOC[C@@H]4C4CC4)CC3)cc21 [Example 479, N-((1S,4r)-4-((S)-3-cyclopropylmorpholine-4-carbonyl)cyclohexyl)-1-methyl-2-phenyl-1H-indole-6-sulfonamide] | 8.00 | 5.90 | > 33000
3 | Cn1c(-c2ccccc2)cc2ccc(S(=O)(=O)N[C@H]3CC[C@H](C(=O)N4CC5(CN(C(=O)OC(C)(C)C)C5)C4)CC3)cc21 [Example 483, tert-butyl 6-((1r,4r)-4-(1-methyl-2-phenyl-1H-indole-6-sulfonamido)cyclohexanecarbonyl)-2,6-diazaspiro[3.3]heptane-2-carboxylate] | 7.12 | 7.40 | 16000
